Test results from patent publication US20230380424A1, “IMPROVEMENTS IN OR RELATING TO COPPER BASED PESTICIDES” (AGRONATURALIS LTD, priority 2020, published 2023).

Assays:
[1] = Contact angle of spray compositions (Kruss DSA30 Drop shape analyser); format: physicochemical; conditions: composition with 15 ppm copper hydroxide
Method: (§1) The surface wetting and deposition of copper from spray compositions was determined by comparing compositions containing 15 ppm copper hydroxide with varying amounts of sodium lauryl sulfate (Agnique SLS) on its own, varying amounts of sodium dioctyl sulfosuccinate (Geropon SDS) on its own and various mixtures of the two surfactants.
Contact angles of the same compositions were also measured.
(§2) The measurements were made using a Kruss DSA30 Drop shape analyser.

[2] = Surface tension of spray compositions (Kruss DSA30 Drop shape analyser); format: physicochemical; conditions: composition with 15 ppm copper hydroxide
Method: as §1, §2

Row | contact angle ([1]; across all rates) | Compound | surface tension (actual) ([2]; 5 ppm surfactant) | surface tension (actual) ([2]; 20 ppm surfactant) | surface tension (actual) ([2]; 50 ppm surfactant) | surface tension (actual) ([2]; 125 ppm surfactant) | surface tension (actual) ([2]; 250 ppm surfactant) | contact angle trend with concentration [1]
1 | > 100 ° | CCCCCCCCCCCCOS(=O)(=O)[O-].[Na+] [Agnique SLS, sodium lauryl sulfate] | 70.4 mN/m | 70.5 mN/m | 67.3 mN/m | 64.7 mN/m | 64.6 mN/m | –
2 | – | CCCCCCCCOC(=O)CC(C(=O)OCCCCCCCC)S(=O)(=O)O.[Na] (stereo not drawn) [Geropon SDS, sodium dioctyl sulfosuccinate] | 70.0 mN/m | 55.5 mN/m | 49.6 mN/m | 47.6 mN/m | 43.9 mN/m | stepwise reduction from 5 ppm onwards
